How the values were obtained:
Assay type in all cases: cell-based
ER [1] = target: T1, ER (Homo sapiens, UniProt P03372); test: Western blot analysis (compounds B1-B126); settings: ER degradation, read-out: Traditional Western Degradation potency (DC50)
T1 construct: endogenous in cells; probably T47D or MCF-7
T1 sequence (P03372 1-595): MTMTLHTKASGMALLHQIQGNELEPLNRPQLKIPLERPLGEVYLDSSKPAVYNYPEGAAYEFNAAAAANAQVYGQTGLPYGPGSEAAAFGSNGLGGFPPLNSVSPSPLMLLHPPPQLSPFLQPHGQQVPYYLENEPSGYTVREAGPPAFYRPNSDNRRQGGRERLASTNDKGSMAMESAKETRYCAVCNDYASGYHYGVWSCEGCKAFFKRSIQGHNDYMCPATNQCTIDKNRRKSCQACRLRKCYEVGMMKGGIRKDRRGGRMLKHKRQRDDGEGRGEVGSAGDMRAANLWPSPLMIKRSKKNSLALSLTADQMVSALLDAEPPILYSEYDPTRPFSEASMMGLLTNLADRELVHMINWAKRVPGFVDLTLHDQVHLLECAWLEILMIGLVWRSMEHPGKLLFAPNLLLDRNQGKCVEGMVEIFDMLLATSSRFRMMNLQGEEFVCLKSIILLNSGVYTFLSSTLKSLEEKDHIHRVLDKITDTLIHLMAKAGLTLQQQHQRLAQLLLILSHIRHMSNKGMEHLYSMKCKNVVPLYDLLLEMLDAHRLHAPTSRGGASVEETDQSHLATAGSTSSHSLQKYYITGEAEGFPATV
Procedure: Western Blot Analysis. The cells that are treated with the compounds are lysed in Radioimmunoprecipitation Assay Protein Lysis and Extraction Buffer (e.g., 25 mmol/L Tris.HCl, pH 7.6, 150 mmol/L NaCl, 1% Nonidet P-40, 1% sodium deoxycholate, and 0.1% sodium dodecyl sulfate) containing proteinase inhibitor cocktail. Equal amounts of total protein are electrophoresed through 10% SDS-polyacrylamide gels after determination of protein concentration by BCA assay. The separated protein bands are transferred onto PVDF membranes and blotted against different antibodies. The blots are scanned, and the band intensities are quantified (e.g., by using GelQuant.NET software provided by biochemlabsolutions.com). The relative mean intensity of target proteins is expressed after normalization to the intensity of glyceraldehyde-3-phosphate dehydrogenase bands.
Western Blot Analysis. Western blot analysis was performed essentially as described previously. The cells treated with indicated compounds were lysed in Radioimmunoprecipitation Assay Protein Lysis and Extraction Buffer (25 mmol/L Tris.HCl, pH 7.6, 150 mmol/L NaCl, 1% Nonidet P-40, 1% sodium deoxycholate, and 0.1% sodium dodecyl sulfate) containing proteinase inhibitor cocktail (Roche Diagnostics, Mannheim, Germany). Equal amounts of total protein were electrophoresed through 10% SDS-polyacrylamide gels after determination of protein concentration by BCA assay (Fisher Scientific, Pittsburgh, PA). The separated protein bands were transferred onto PVDF membranes (GE Healthcare Life Sciences, Marlborough, MA) and blotted against different antibodies, as indicated. The blots were scanned, and the band intensities were quantified using GelQuant.NET software provided by biochemlabsolutions.com. The relative mean intensity of target proteins was expressed after normalization to the intensity of glyceraldehyde-3-phosphate dehydrogenase bands.

ER [2] = target: T1, ER; test: In-cell Western (ICW) ER degradation assay in T47D cells; settings: T47D cells, 16 hrs
Procedure: (§1) ERa degradative activity of compounds can be assessed in MCF-7 and T47D Cells. MCF-7 and T47D cell are seeded and are subsequently treated with the compounds at certain concentrations (e.g., 0.02 to 300 nM). DMSO can be used as vehicle control. Cells are fixed and are blocked with Intercept (PBS) Blocking Buffer (e.g., Li—COR, Odyssey Blocking Buffer), and are stained with ER (e.g., 1:500, Cell signaling) primary antibody for overnight at cold room. Secondary Antibody (e.g., IRDye 800CW Goat anti-Rabbit IgG) and CellTag 700 Stain are added in Intercept (PBS) Blocking Buffer. Finally, cell plate is placed in incubator to dry. Image and signal are captured on Odyssey® DLx Imaging System.
(§2) In-cell Western (ICW) assays in MCF-7 and T47D cell lines.
(§3) Procedures for ICW assays
(§4) In vitro Assay: MCF-7 and T47D ICW assay
(§5) Day 3: After 16 hrs of compounds treatment, cells were fixed by 4% PFA and permeabilized with elution buffer (0.1% Triton X-100 in 1% PBS Solution). Subsequently, cells were blocked with Intercept (PBS) Blocking Buffer (Li—COR, Odyssey Blocking Buffer), and were stained with ER (1:500, Cell signaling) primary antibody for overnight at cold room.
(§6) Day 4: Remove the buffer, add IRDye 800CW Goat anti-Rabbit IgG Secondary Antibody (1:2000) and CellTag 700 Stain (1:500) in Intercept (PBS) Blocking Buffer. Finally, cell plate is placed in incubator to dry. Image and signal were captured on Odyssey® DLx Imaging System.

ER [3] = target: T1, ER; test: In-cell Western (ICW) ER degradation assay in MCF-7 cells; settings: 16 hrs
Procedure: as §1, §2, §3, §4, §5, §6

ER [4] = target: T1, ER; test: In-cell western blot analysis, relative ER percentage (compounds B1-B126); settings: ER degradation, 16 hours, read-out: ICW DC50
In short: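 Cells seeded at 40,000 or 10,000 per well overnight were treated with compound (final 0.5% DMSO) for 16 hours, then fixed with formaldehyde. ER was detected with primary antibodies and anti-rabbit-680/anti-mouse-800 secondaries on a CLX reader. Signal is expressed relative to untreated and DMSO wells set as 100%.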

[5] = Cell growth assay, WST-8 (compounds B1-B126); settings: 96 h; T47D cell line, WST-8, 4 days; read-out: Cell growth inhibition in T47D cell line IC50
In short: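 Cells seeded at 1500/well overnight, treated one day later with compound doses for 4 days, then 10% WST-8 added for 2.5 h at 37° C in CO2. Absorbance at 450 nm, expressed relative to vehicle control over three independent repeats.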

Row | SMILES | DC50 (ER [1]) [µM] | also measured
1 | COc1c2c(cc3c1C(=O)N(C1CCC(=O)NC1=O)C3=O)CN(CC(=O)N1CCC3(CC1)CCN(c1cc(F)c([C@@H]4c5ccc6[nH]ncc6c5C[C@@H](C)N4CC(F)F)c(F)c1)CC3)C2 (stereo partly drawn) [Compound B17, 6-(2-(9-(4-((6S,8R)-7-(2,2-difluoroethyl)-8-methyl-6,7,8,9-tetrahydro-3H-pyrazolo[4,3-f]isoquinolin-6-yl)-3,5-diazaspiro[5.5]undecan-3-yl)-2-difluorophenyl)-3,9-oxoethyl)-2-(2,6-dioxopiperidin-3-yl)-4-methoxy-6,7-dihydropyrrolo[3,4-f]isoindole-1,3(2H,5H)-dione] | < 0.01 | –
2 | C[C@@H]1Cc2c(ccc3[nH]ncc23)[C@@H](c2c(F)cc(N3CCC(C(=O)N4CCC(N5Cc6cc7c(cc6C5)C(=O)N(C5CCC(=O)NC5=O)C7=O)CC4)CC3)cc2F)N1CC(F)F (stereo partly drawn) [Compound B6, 6-(1-(1-(4-((6S,8R)-7-(2,2-difluoroethyl)-8-methyl-6,7,8,9-tetrahydro-3H-pyrazolo[4,3-f]isoquinolin-6-yl)-3,5-difluorophenyl)piperidine-4-carbonyl)piperidin-4-yl)-2-(2,6-dioxopiperidin-3-yl)-6,7-dihydropyrrolo[3,4-f]isoindole-1,3(2H,5H)-dione] | < 0.01 | –
3 | C[C@@H]1Cc2c(ccc3[nH]ncc23)[C@@H](c2ccc(N3CCC4(CC3)CC(CN3CCN5c6cc7c(cc6OC[C@@H]5C3)C(=O)N([C@@H]3CCC(=O)NC3=O)C7)C4)cn2)N1CC1(F)CC1 [Compound A12, (R)-3-((S)-3-((7-(6-((6S,8R)-7-((1-fluorocyclopropyl)methyl)-8-methyl-6,7,8,9-tetrahydro-3H-pyrazolo[4,3-f]isoquinolin-6-yl)pyridin-3-yl)-7-azaspiro[3.5]nonan-2-yl)methyl)-8-oxo-1,2,3,4,4a,5,8,10-octahydro-9H-pyrazino[1′,2′: 4,5][1,4]oxazino[2,3-f]isoindol-9-yl)piperidine-2,6-dione] | – | DC50 (ER [2]): < 0.001 µM; Dmax (ER [2]; T47D, read-out: ER T47D ICW Dmax (%)): > 75%; Dmax (ER [3]; MCF7, MCF-7 cells, read-out: ER MCF7 ICW Dmax (%)): > 75%; DC50 (ER [3]; MCF-7 cells, read-out: ER MCF7 ICW DC50): < 0.001 µM
4 | C[C@@H]1Cc2c(ccc3[nH]ncc23)[C@@H](c2c(F)cc(N3CCC(CN4CCN5c6ccc7c(c6OC[C@@H]5C4)CN(C4CCC(=O)NC4=O)C7=O)CC3)cc2F)N1CC(F)F (stereo partly drawn) [Compound B105, 3-((S)-7-((1-(4-((6S,8R)-7-(2,2-difluoroethyl)-8-methyl-6,7,8,9-tetrahydro-3H-pyrazolo[4,3-f]isoquinolin-6-yl)-3,5-difluorophenyl)piperidin-4-yl)methyl)-1-oxo-1,3,5,5a,6,7,8,9-octahydro-2H-pyrazino[1′,2′:4,5][1,4]oxazino[2,3-e]isoindol-2-yl)piperidine-2,6-dione] | > 0.1 | –
5 | C[C@@H]1Cc2c(ccc3[nH]ncc23)[C@@H](c2c(F)cc(N3CCC4(CCN(C(=O)CN5Cc6cc7c(cc6C5)C(=O)N(C5CCC(=O)NC5=O)C7=O)CC4)C3)cc2F)N1CC(F)F (stereo partly drawn) [Compound B12, 6-(2-(2-(4-((6S,8R)-7-(2,2-difluoroethyl)-8-methyl-6,7,8,9-tetrahydro-3H-pyrazolo[4,3-f]isoquinolin-6-yl)-3,5-difluorophenyl)-2,8-diazaspiro[4.5]decan-8-yl)-2-oxoethyl)-2-(2,6-dioxopiperidin-3-yl)-6,7-dihydropyrrolo[3,4-f]isoindole-1,3(2H,5H)-dione] | 0.01 to 0.1 | –
6 | C[C@@H]1Cc2c(ccc3[nH]ncc23)[C@@H](c2c(F)cc([C@H]3CC[C@H](C(=O)N4CC(CN5Cc6cc7c(cc6C5)C(=O)N(C5CCC(=O)NC5=O)C7=O)C4)CC3)cc2F)N1CC(F)F (stereo partly drawn) [Compound B3, 6-((1-((1S,4r)-4-(4-((6S,8R)-7-(2,2-difluoroethyl)-8-methyl-6,7,8,9-tetrahydro-3H-pyrazolo[4,3-f]isoquinolin-6-yl)-3,5-difluorophenyl)cyclohexane-1-carbonyl)azetidin-3-yl)methyl)-2-(2,6-dioxopiperidin-3-yl)-6,7-dihydropyrrolo[3,4-f]isoindole-1,3(2H,5H)-dione] | > 0.1 | –
7 | C[C@@H]1Cc2c(ccc3[nH]ncc23)[C@@H](c2c(F)cc(N3CCC4(CCN(CC(=O)N5Cc6cc7c(cc6C5)C(=O)N(C5CCC(=O)NC5=O)C7=O)CC4)CC3)cc2F)N1CC(F)F (stereo partly drawn) [Compound B5, 6-(2-(9-(4-((6S,8R)-7-(2,2-difluoroethyl)-8-methyl-6,7,8,9-tetrahydro-3H-pyrazolo[4,3-f]isoquinolin-6-yl)-3,5-difluorophenyl)-3,9-diazaspiro[5.5]undecan-3-yl)acetyl)-2-(2,6-dioxopiperidin-3-yl)-6,7-dihydropyrrolo[3,4-f]isoindole-1,3(2H,5H)-dione] | 0.01 to 0.1 | –
8 | C[C@@H]1Cc2c(ccc3[nH]ncc23)[C@@H](c2c(F)cc(N3CCC(CN4CC5(Cc6cc7c(cc6C5)C(=O)N(C5CCC(=O)NC5=O)C7=O)C4)CC3)cc2F)N1CC(F)F (stereo partly drawn) [Compound B14, 1-((1-(4-((6S,8R)-7-(2,2-difluoroethyl)-8-methyl-6,7,8,9-tetrahydro-3H-pyrazolo[4,3-f]isoquinolin-6-yl)-3,5-difluorophenyl)piperidin-4-yl)methyl)-2′-(2,6-dioxopiperidin-3-yl)-5′,7′-dihydro-1′H-spiro[azetidine-3,6′-cyclopenta[f]isoindole]-1′,3′(2′H)-dione] | > 0.1 | –
9 | C[C@@H]1Cc2c(ccc3[nH]ncc23)[C@@H](c2ccc(N3CC4(CCC(CN5CCN6c7cc8c(cc7OC[C@@H]6C5)C(=O)N(C5CCC(=O)NC5=O)C8)CC4)C3)cn2)N1CC(F)F (stereo partly drawn) [Compound B88, 3-((S)-3-((2-(6-((6S,8R)-7-(2,2-difluoroethyl)-8-methyl-6,7,8,9-tetrahydro-3H-pyrazolo[4,3-f]isoquinolin-6-yl)pyridin-3-yl)-2-azaspiro[3.5]nonan-7-yl)methyl)-8-oxo-1,2,3,4,4a,5,8,10-octahydro-9H-pyrazino[1′,2′:4,5][1,4]oxazino[2,3-f]isoindol-9-yl)piperidine-2,6-dione] | – | DC50 (ER [4]): < 0.01 µM; IC50 [5]: 0.001 to 0.01 µM

Reference: US20260256925A1, “INDAZOLE DERIVATIVES AS ESTROGEN RECEPTOR DEGRADERS” (REGENTS OF THE UNIVERSITY OF MICHIGAN, priority 2022, published 2026)
